Columns and labels:
Format in all cases: in vivo
[1] = tested on: barnyardgrass (Echinochloa crus-galli); experiment: Test A preemergence, barnyardgrass; settings: 0 to 100 scale (0 no effect, 100 complete control)
Procedure, shortened: (§1)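 In a greenhouse, loam–sand potted species were treated with surfactant-formulated compound, preemergence via directed soil spray and postemergence at 2–10 cm height, one- to two-leaf stage. Response assessed visually at about ten days; 100 means complete control.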

[2] = tested on: large crabgrass (Digitaria sanguinalis); experiment: Test A preemergence, large crabgrass; settings: 0 to 100 scale (0 no effect, 100 complete control)
Procedure, shortened: as §1

[3] = tested on: giant foxtail (Setaria faberi); experiment: Test A preemergence, giant foxtail; settings: 0 to 100 scale (0 no effect, 100 complete control)
Procedure, shortened: as §1

[4] = tested on: morningglory (Ipomoea spp.); experiment: Test A preemergence, morningglory; settings: 0 to 100 scale (0 no effect, 100 complete control)
Procedure, shortened: as §1

[5] = tested on: pigweed (Amaranthus retroflexus); experiment: Test A preemergence, pigweed; settings: 0 to 100 scale (0 no effect, 100 complete control)
Procedure, shortened: as §1

[6] = tested on: velvetleaf (Abutilon theophrasti); experiment: Test A preemergence, velvetleaf; settings: 0 to 100 scale (0 no effect, 100 complete control)
Procedure, shortened: as §1

[7] = tested on: wheat (Triticum aestivum); experiment: Test A preemergence, wheat; settings: 0 to 100 scale (0 no effect, 100 complete control)
Procedure, shortened: as §1

corn (Zea mays) [8] = experiment: Test A preemergence, corn; settings: 0 to 100 scale (0 no effect, 100 complete control)
Procedure, shortened: as §1

[9] = tested on: barnyardgrass (Echinochloa crus-galli); experiment: Test A postemergence, barnyardgrass; settings: 0 to 100 scale (0 no effect, 100 complete control)
Procedure, shortened: as §1

[10] = tested on: large crabgrass (Digitaria sanguinalis); experiment: Test A postemergence, large crabgrass; settings: 0 to 100 scale (0 no effect, 100 complete control)
Procedure, shortened: as §1

[11] = tested on: giant foxtail (Setaria faberi); experiment: Test A postemergence, giant foxtail; settings: 0 to 100 scale (0 no effect, 100 complete control)
Procedure, shortened: as §1

[12] = tested on: morningglory (Ipomoea spp.); experiment: Test A postemergence, morningglory; settings: 0 to 100 scale (0 no effect, 100 complete control)
Procedure, shortened: as §1

[13] = tested on: pigweed (Amaranthus retroflexus); experiment: Test A postemergence, pigweed; settings: 0 to 100 scale (0 no effect, 100 complete control)
Procedure, shortened: as §1

[14] = tested on: velvetleaf (Abutilon theophrasti); experiment: Test A postemergence, velvetleaf; settings: 0 to 100 scale (0 no effect, 100 complete control)
Procedure, shortened: as §1

[15] = tested on: wheat (Triticum aestivum); experiment: Test A postemergence, wheat; settings: 0 to 100 scale (0 no effect, 100 complete control)
Procedure, shortened: as §1

corn (Zea mays) [16] = experiment: Test A postemergence, corn; settings: 0 to 100 scale (0 no effect, 100 complete control)
Procedure, shortened: as §1

rice (Oryza sativa) = experiment: Test B flooded paddy test, rice; settings: Flood, scale 0 to 100
Procedure, shortened: (§2)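 2-leaf plants; pots flooded 3 cm above soil; compound added to paddy water; depth maintained. Greenhouse 13–15 d. Visual rating vs controls, 0 (no effect) to 100 (complete control); dash = no result.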

[17] = tested on: umbrella sedge (Cyperus difformis); experiment: Test B flooded paddy test, umbrella sedge; settings: Flood, scale 0 to 100
Procedure, shortened: as §2

[18] = tested on: ducksalad (Heteranthera limosa); experiment: Test B flooded paddy test, ducksalad; settings: Flood, scale 0 to 100
Procedure, shortened: as §2

[19] = tested on: barnyardgrass (Echinochloa crus-galli); experiment: Test B flooded paddy test, barnyardgrass; settings: Flood
Procedure, shortened: as §2

[20] = 250 g ai/ha, scale 0 to 100 (0 no effect, 100 complete control)

SMILES: CC1(C)CC([S+]([O-])Cc2c(C(F)(F)Cl)nc3n(c2=O)CCC3)=NO1 (stereo not shown) [Compound 17]
- Plant response rating, Barnyardgrass ([1]; 125 g ai/ha): 20
- Plant response rating, Barnyardgrass ([1]; 500 g ai/ha): 60
- Plant response rating, Crabgrass, Large ([2]; 125 g ai/ha): 40
- Plant response rating, Crabgrass, Large ([2]; 500 g ai/ha): 80
- Plant response rating, Foxtail, Giant ([3]; 125 g ai/ha): 30
- Plant response rating, Foxtail, Giant ([3]; 500 g ai/ha): 80
- Plant response rating, Morningglory ([4]; 125 g ai/ha): 0
- Plant response rating, Morningglory ([4]; 500 g ai/ha): 0
- Plant response rating, Pigweed ([5]; 125 g ai/ha): 0
- Plant response rating, Pigweed ([5]; 500 g ai/ha): 0
- Plant response rating, Velvetleaf ([6]; 125 g ai/ha): 0
- Plant response rating, Velvetleaf ([6]; 500 g ai/ha): 0
- Plant response rating, Wheat ([7]; 125 g ai/ha): 0
- Plant response rating, Wheat ([7]; 500 g ai/ha): 0
- Plant response rating, Corn (corn (Zea mays) [8]; 125 g ai/ha): 0
- Plant response rating, Corn (corn (Zea mays) [8]; 500 g ai/ha): 0
- Plant response rating, Barnyardgrass ([9]; 125 g ai/ha): 0
- Plant response rating, Barnyardgrass ([9]; 500 g ai/ha): 60
- Plant response rating, Crabgrass, Large ([10]; 125 g ai/ha): 20
- Plant response rating, Crabgrass, Large ([10]; 500 g ai/ha): 50
- Plant response rating, Foxtail, Giant ([11]; 125 g ai/ha): 30
- Plant response rating, Foxtail, Giant ([11]; 500 g ai/ha): 60
- Plant response rating, Morningglory ([12]; 125 g ai/ha): 0
- Plant response rating, Morningglory ([12]; 500 g ai/ha): 0
- Plant response rating, Pigweed ([13]; 125 g ai/ha): 0
- Plant response rating, Pigweed ([13]; 500 g ai/ha): 10
- Plant response rating, Velvetleaf ([14]; 125 g ai/ha): 0
- Plant response rating, Velvetleaf ([14]; 500 g ai/ha): 10
- Plant response rating, Wheat ([15]; 125 g ai/ha): 0
- Plant response rating, Wheat ([15]; 500 g ai/ha): 20
- Plant response rating, Corn (corn (Zea mays) [16]; 125 g ai/ha): 0
- Plant response rating, Corn (corn (Zea mays) [16]; 500 g ai/ha): 0
- Plant response rating, Rice (rice (Oryza sativa); 31 g ai/ha): 0
- Plant response rating, Rice (rice (Oryza sativa); 62 g ai/ha): 0
- Plant response rating, Rice (rice (Oryza sativa); 125 g ai/ha): 0
- Plant response rating, Rice (rice (Oryza sativa); 250 g ai/ha): 0
- Plant response rating, Sedge, Umbrella ([17]; 31 g ai/ha): 0
- Plant response rating, Sedge, Umbrella ([17]; 62 g ai/ha): 0
- Plant response rating, Sedge, Umbrella ([17]; 125 g ai/ha): 0
- Plant response rating, Sedge, Umbrella ([17]; 250 g ai/ha): 0
- Plant response rating, Ducksalad ([18]; 31 g ai/ha): 0
- Plant response rating, Ducksalad ([18]; 62 g ai/ha): 0
- Plant response rating, Ducksalad ([18]; 125 g ai/ha): 0
- Plant response rating, Ducksalad ([18]; 250 g ai/ha): 0
- Plant response rating, Barnyardgrass ([19]; 31 g ai/ha, scale 0 to 100): 0
- Plant response rating, Barnyardgrass ([19]; 62 g ai/ha, scale 0 to 100): 0
- Plant response rating, Barnyardgrass ([19]; 125 g ai/ha, scale 0 to 100): 0
- Plant response rating, Barnyardgrass [19, 20]: 0

SMILES: CC1(C)CC([S+]([O-])Cc2c(C(F)(F)F)nc3n(c2=O)CCS3)=NO1 (stereo not shown) [Compound 5]
- Plant response rating, Barnyardgrass ([1]; 125 g ai/ha): 0
- Plant response rating, Barnyardgrass ([1]; 500 g ai/ha): 70
- Plant response rating, Crabgrass, Large ([2]; 125 g ai/ha): 40
- Plant response rating, Crabgrass, Large ([2]; 500 g ai/ha): 80
- Plant response rating, Foxtail, Giant ([3]; 125 g ai/ha): 30
- Plant response rating, Foxtail, Giant ([3]; 500 g ai/ha): 80
- Plant response rating, Morningglory ([4]; 125 g ai/ha): 0
- Plant response rating, Morningglory ([4]; 500 g ai/ha): 0
- Plant response rating, Pigweed ([5]; 125 g ai/ha): 40
- Plant response rating, Pigweed ([5]; 500 g ai/ha): 60
- Plant response rating, Velvetleaf ([6]; 125 g ai/ha): 0
- Plant response rating, Velvetleaf ([6]; 500 g ai/ha): 0
- Plant response rating, Wheat ([7]; 125 g ai/ha): 0
- Plant response rating, Wheat ([7]; 500 g ai/ha): 0
- Plant response rating, Corn (corn (Zea mays) [8]; 125 g ai/ha): 0
- Plant response rating, Corn (corn (Zea mays) [8]; 500 g ai/ha): 0
- Plant response rating, Barnyardgrass ([9]; 125 g ai/ha): 30
- Plant response rating, Barnyardgrass ([9]; 500 g ai/ha): 60
- Plant response rating, Crabgrass, Large ([10]; 125 g ai/ha): 10
- Plant response rating, Crabgrass, Large ([10]; 500 g ai/ha): 70
- Plant response rating, Foxtail, Giant ([11]; 125 g ai/ha): 40
- Plant response rating, Foxtail, Giant ([11]; 500 g ai/ha): 70
- Plant response rating, Morningglory ([12]; 125 g ai/ha): 0
- Plant response rating, Morningglory ([12]; 500 g ai/ha): 0
- Plant response rating, Pigweed ([13]; 125 g ai/ha): 0
- Plant response rating, Pigweed ([13]; 500 g ai/ha): 10
- Plant response rating, Velvetleaf ([14]; 125 g ai/ha): 0
- Plant response rating, Velvetleaf ([14]; 500 g ai/ha): 40
- Plant response rating, Wheat ([15]; 125 g ai/ha): 0
- Plant response rating, Wheat ([15]; 500 g ai/ha): 0
- Plant response rating, Corn (corn (Zea mays) [16]; 125 g ai/ha): 0
- Plant response rating, Corn (corn (Zea mays) [16]; 500 g ai/ha): 30
- Plant response rating, Rice (rice (Oryza sativa); 62 g ai/ha): 0
- Plant response rating, Rice (rice (Oryza sativa); 250 g ai/ha): 0
- Plant response rating, Sedge, Umbrella ([17]; 62 g ai/ha): 0
- Plant response rating, Sedge, Umbrella ([17]; 250 g ai/ha): 45
- Plant response rating, Ducksalad ([18]; 62 g ai/ha): 0
- Plant response rating, Ducksalad ([18]; 250 g ai/ha): 20
- Plant response rating, Barnyardgrass ([19]; 62 g ai/ha, scale 0 to 100): 10
- Plant response rating, Barnyardgrass [19, 20]: 30

— patent publication US20100099561A1, “HETEROBICYCLIC ALKYLTHIO-BRIDGED ISOXAZOLINES” (E.I. DU PONT DE NEMOURS AND COMPANY, priority 2008, published 2010)
